From patent publication US11426356B2, “Crosslinked particles” (Pendant Biosciences, Inc., priority 2015, dated 2022)

Experiments:
Assay type in all cases: physicochemical
[1] = Loading of particles with triamcinolone hexacetonide (swelling in THF, slow addition of water); settings: included surface-bound drug or free drug in solution
Experimental: In some embodiments, the loading procedure can affect the amount of drug that is absorbed into a particle of the present disclosure. For example, as set forth in Examples 7 and 8, 25 mg of 75:25 (mPEG-PVL-PAVL:PVL-PAVL) particles were swollen overnight with 2 mg/mL triamcinolone hexacetonide in THF. However, without wishing to be bound by theory, slow addition of greater volumes of water can facilitate greater uptake of triamcinolone hexacetonide by allowing the drug to preferentially partition into the particles. As set forth in Examples 7 and 8, slow addition of water enabled 67% loading efficiency. Additional parameters, in addition to the rate of water addition, that can affect the loading of a drug into a particle of the present disclosure are, for instance, the solvent in which the drug is dissolved, the time that the particles soak with the drug, and the volume of water used. Other parameters include the pH and the ionic strength of the solvent. For example, protic organic solvents such as methanol or ethanol can be used in place of water to facilitate loading of drug into a particle of the present disclosure.
Unless otherwise indicated, quantitation of drug products was carried out using HPLC methods. […]

[2] = Preliminary drug release from crosslinked macroparticles
Experimental: (§1) Unless otherwise indicated, quantitation of drug products was carried out using HPLC methods. Calibration curves for drugs used herein (e.g., triamcinolone, triamcinolone hexacetonide, triamcinolone acetonide, paclitaxel, and curcumin) were prepared by injecting known concentrations of the drugs and measuring the area under the curve at each concentration. Analyses were carried out using an Agilent Zorbax Eclipse XDB-C18 column (150×4.6 mm i.d.) with a 12.5×4.6 mm guard column. The parameters for each drug are given below in Table 1
The macroparticles were suspended in PBS (0.1% Tween) and the release rate was observed. The macroparticles released 5% of the paclitaxel after 3 hours at room temperature and about 5% after 24 hours at room temperature.

[3] = Release of triamcinolone hexacetonide from loaded particles in dissolution media
Experimental: as §1
25 mg of 75:25 (mPEG-PVL-PAVL:PVL-PAVL) particles were swollen overnight with 2 mg/mL triamcinolone hexacetonide in THF. 10 mL water including 0.1% tween was then added dropwise. The resulting mixture was centrifuged, the supernatant was collected, and the addition of 10 mL water including 0.1% tween was added dropwise again (2×; 30 mL total).
Without wishing to be bound by theory, this may be due to the fact that the triamcinolone hexacetonide crystallized on the surface of the particles. Without wishing to be bound by theory, this may be due to the relatively fast addition of water and the limited solubility of triamcinolone hexacetonide, which caused it to crystallize.
The loading efficiency, which included surface-bound drug or free drug in solution, was 67%. Upon suspending the particles in dissolution media, 20% of the triamcinolone hexacetonide was released within an hour, and 30% was released within 2 hours.

[4] = Drug loading of crosslinked PVL-co-PAVL macroparticles (cylinders)
Experimental: as §1
A crosslinked macroparticle weighing about 15 mg comprising PVL-co-PAVL (MW=14760 g/mol, 13% AVL, 87% VL) was loaded with 2.5 mg paclitaxel by overnight soaking in THF followed by the slow addition of 50 mL PBS containing 0.1% Tween.

[5] = Curcumin loading, release and post-release extraction of microparticle flakes
Experimental: as §1
Crosslinked microparticles (15 mg) were loaded with 2.5 mg curcumin by overnight soaking in THF followed by the slow addition of 50 mL PBS containing 0.1% Tween. The microparticles were rinsed with THF to remove free curcumin and dried overnight.
It was observed that microparticles thus produced formed “flakes” that could not be re-suspended in THF or PBS buffer solution upon drying. […] The flakes could not be re-suspended in PBS buffer.
The release profile of curcumin of microparticle flakes produced by the method described above. The release profile is further quantified in Table 6, below.

[6] = particles of Example 8 suspended in dissolution media
[7] = triamcinolone hexacetonide, first cylinder (labelled with a circle)
[8] = about 15 mg PVL-co-PAVL macroparticle, PBS (0.1% Tween), room temperature
[9] = about 15 mg PVL-co-PAVL macroparticle loaded with 2.5 mg paclitaxel

For `CC(C)(C)CC(=O)OCC(=O)[C@@]12OC(C)(C)O[C@@H]1C[C@H]1[C@@H]3CCC4=CC(=O)C=C[C@]4(C)[C@@]3(F)[C@@H](O)C[C@@]12C` [triamcinolone hexacetonide], the loading efficiency [1] was 67%, the “total drug released after about 6 days” value ([2]; both triamcinolone hexacetonide cylinders, FIG. 23) was “about 60%” and the release profile ([3]; Example 7: 75:25 (mPEG-PVL-PAVL:PVL-PAVL) particles, relatively fast addition of water, surface-crystallized drug) was “relatively rapid release”. For the same compound, the “triamcinolone hexacetonide released within 2 hours” value [3, 6] was 30%, the “triamcinolone hexacetonide released within an hour” value [3, 6] was 20% and the “amount of drug in the first cylinder” value [4, 7] was 1.118 mg. For the same compound, the “capacity of the first cylinder” value [4, 7] was 9.12%, the “capacity of the second cylinder” value ([4]; triamcinolone hexacetonide, second cylinder (labelled with an X)) was 11.651% and the “amount of drug in the second cylinder” value ([4]; triamcinolone hexacetonide, second cylinder (labelled with an X), in mg) was 0.901.

For `CC(=O)O[C@H]1C(=O)[C@@]2(C)[C@H]([C@H](OC(=O)c3ccccc3)[C@]3(O)C[C@H](OC(=O)[C@H](O)[C@@H](NC(=O)c4ccccc4)c4ccccc4)C(C)=C1C3(C)C)[C@]1(OC(C)=O)CO[C@@H]1C[C@@H]2O` [paclitaxel], the “paclitaxel released after 3 hours” value [2, 8] was 5%, the “paclitaxel released after 24 hours” value [2, 8] was “about 5%” and the loading capacity [4, 9] was 1.7 % w/w. It also gave a loading efficiency [4, 9] of 30%.

For `COc1cc(/C=C/C(=O)CC(=O)/C=C/c2ccc(O)c(OC)c2)ccc1O` [curcumin], the “curcumin released after about eight days” value ([2]; curcumin-loaded cylinder, FIG. 21) was “almost all”, the “curcumin recovered in post-release extraction of the flakes” value ([5]; after 48 hours release) was 57% and the “curcumin released after 48 hours” value ([5]; from microparticle flakes) was 51%. For the same compound, the capacity ([4]; curcumin-loaded cylinder) was 9.64% and the “amount of drug in the cylinder” value ([4]; curcumin-loaded cylinder dissolved in THF) was 1.176 mg.
